In patent US20250275537A1, “CARBOXAMIDE APYRASE INHIBITORS” (Texas Crop Science, Inc., priority 2024, published 2025):
Each block holds one molecule with its values, some of them ahead of it.

Experiments:
apyrase = test: Apyrase inhibition assay (Method 1); type: biochemical; conditions: inhibitor conc at 1 mM stock, 10 μl per well; 1 hr room temperature; rounded average of at least two assay results
Procedure: Apyrase inhibitors useful as enhancers of pesticidal activity are assessed using an in vitro assay. The method of Windsor, Bio Techniques 33:1024-1030 (November 2002) was used as follows
96 well plates were used for the assay: (Greiner bio-one: REF-655901-96 well, PS, F-bottom, Clear, Non-binding)
• Reaction Buffer: 60 mM Hepes, 3 mM MgCl2, 3 mM CaCl2 and 3 mM ATP (pH 6.5) • Development Buffer A: 2% aqueous ammonium molybdate • Development Buffer B: 11% ascorbic acid in 37.5% TCA in water • Stop buffer C: 2% trisodium citrate in 2% acetic acid solution in water • Add 100 μl of reaction buffer to each well. • Add 10 μl of DMSO (control) or inhibitor/compound or compounds such as N1915 or orthovanadate to each well. (use inhibitor conc at 1 mM; orthovanadate at 2 mM and N1915 at 1 mM) • Add 10 μl of apyrase (concentration based on optimization —Dilute 1 U/μl enzyme to different concentrations such as 0.1U, 0.05U, 0.0025, 0.001U, 0.0005U—to find a good range) • Incubate plate at room temperature for 1 hr • Mix development buffer A and B in the ratio of 1:1.5 (just before use). • Add 50 ul of A:B mix in each well (incubate for 2 mins) • Add 50 ul of C in each well • Measure/Read Absorbance of plate @630 nm
Inhibitory data for the apyrase assay described above are provided for selected compounds in Table 3. In Table 3, D indicates inhibition of <10%.
With reference to Table 3, percent inhibition of apyrase is reported as the rounded average of at least two assay results.

[1] = tested on: Amaranthus retroflexus (pigweed); test: Enhancement of herbicide activity: pre-emergence Amaranthus kill with metribuzin (Method 4); type: in vivo; conditions: enhancer at 100 g/ha; for enhancement of metribuzin herbicidal activity: at seven and fourteen days
Description: Small amounts of acetone were used to aid solubility. The pots were watered immediately after sowing and treatment and then allowed to stand in a glasshouse. Assessment of kill was made seven and fourteen days after treatment. The test included four replicates for each treatment and the control.

[2] = tested on: Brown Rust (Puccinia recondita) on wheat; test: Greenhouse crop test: Brown Rust on wheat in combination with commercial fungicides (Method 3); type: in vivo; conditions: evaluated at fourteen days
Procedure: In this method, exemplary compounds were evaluated for their ability to control Brown Rust (Puccinia recondita) on wheat, in a controlled greenhouse environment in combination with one of four fungicides, Amistar, Imtrex, Proline or Balaya. In these studies, JB Diego wheat plants were used. Seeds were sown in 9 cm diameter pots to a depth of 1 to 2 cm using Petersfield potting compost (75% medium grade peat, 12% screened sterilized loam, 3% medium grade vermiculite, 10% grit (5 mm screened, lime free), 1.5 kg PG mix per m3, lime to pH5.5-6.0 and wetting agent (Vitax Ultrawet 200 ml per m3) and germinated/grown at 23 C under a 16 h day/8 h night light regime. Plants were treated two to three weeks after sowing when they were at the BBCH 11 growth stage (first pair of true leaves (unifoliate) unfolded). Plants were inoculated with the Puccinia triticina (Brown rust on wheat plants) 24 hours after treatment. A track sprayer was used to treat the plants with the mixture of commercial fungicide and test compound using a water volume of 200 L/ha. […] Each plant was evaluated at fourteen days (once the disease symptoms were fully expressed) for % control of the disease. […] Also, each commercial fungicide was tested on its own as a part of each treatment, this being benchmark against which the experimental compounds were evaluated. […]

[3] = tested on: strain of Zymoseptoria tritici with a reduced susceptibility to strobilurin fungicides; test: In vitro assessment of combination activity with fungicides (Method 2), Z. tritici strobilurin-reduced-susceptibility strain; type: cell-based; conditions: any fungicide (azoxystrobin, fluxapyroxad, desthio prothioconazole)
Procedure: (§1) Selected compounds are assessed in combination with fungicides against a range of commercially important plant pathogenic fungi.
(§2) The test is conducted as follows. A fungicide is applied to a fungal plant pathogen at a rate slightly below that at which it gave any control, in combination with a suitable dose of the test compound. The test compound is recorded as active if control of the pathogen is observed.
(§3) In more detail, the test is conducted as follows. For each combination of fungicide, pathogen and test compound, the following wells are used. Well 1 contains a fungal pathogen growing on agar, and a fungicide at a rate just below that at which it gives any control of the pathogen. Well 2 is the same as Well 1, except that the test compound is also added at Rate 1. Well 3 is the same as Well 2, except that the test compound is added at Rate 2, where Rate 2 was higher than Rate 1. Finally, as a benchmark. Well 4 is the same as Well 1, except that it contains the fungicide at a higher rate, at which it gives partial control of the pathogen. Each of the Wells 1 to 4 are run in duplicate, giving a total of 8 wells for each combination of fungicide, pathogen and test compound. For each well, after a suitable period of incubation, a visual assessment of the % control of the pathogen by the fungicide is made. […]

[4] = tested on: strain of Zymoseptoria tritici with a reduced susceptibility to SDHI fungicides; test: In vitro assessment of combination activity with fungicides (Method 2), Z. tritici SDHI-reduced-susceptibility strain; type: cell-based; conditions: any fungicide (azoxystrobin, fluxapyroxad, desthio prothioconazole)
Procedure: as §1, §2, §3

Microdochium nivale = test: In vitro assessment of combination activity with fungicides (Method 2), Microdochium nivale; type: cell-based; conditions: in combination with azoxystrobin; visual % control on agar
Procedure: as §1, §2, §3

[5] = Assessed 7 DAT, metribuzin rate 50 g/ha
[6] = Assessed 7 DAT, metribuzin rate 100 g/ha
[7] = Assessed 7 DAT, metribuzin rate 200 g/ha
[8] = Assessed 14 DAT, metribuzin rate 50 g/ha
[9] = Assessed 14 DAT, metribuzin rate 100 g/ha
[10] = Assessed 14 DAT, metribuzin rate 200 g/ha

SMILES: O=C(Nc1ccccc1)c1ccc(C(=O)Nc2ccccc2)cc1 [Compound I-3, N^1,N^4-diphenylterephthalamide]
- % Inhibition of Apyrase (apyrase): A (A indicates inhibition above 30%)
- additional Brown Rust control in combination with Balaya over Balaya alone ([2]; Balaya 0.25 L/ha): measurable additional Brown Rust control

SMILES: CSc1nnc(C(C)(C)C)c(=O)n1N [metribuzin, reference compound]
- Pre-Emergence Amaranthus Kill Percentage [1, 5]: 0.0%

SMILES: Nc1ccc(N2C(=O)c3ccccc3C2=O)c(Cl)c1 [Compound I-25, 2-(4-amino-2-chlorophenyl)isoindoline-1,3-dione]
- % Inhibition of Apyrase (apyrase): C (C indicates inhibition of from 10% to 20%)

SMILES: Cn1nc(Cn2c(=O)c3ccccc3c(=O)n2C)cc1Cl [Compound I-26, 2-((5-chloro-1-methyl-1H-pyrazol-3-yl)methyl)-3-methyl-2,3-dihydrophthalazine-1,4-dione]
- % Inhibition of Apyrase (apyrase): C (C indicates inhibition of from 10% to 20%)

SMILES: O=C(Nc1cccc([N+](=O)[O-])c1)c1cccc(S(=O)(=O)Nc2ccc(Br)cc2)c1 [Roux Compound 13]
- enhancement of fungicide activity (combination activity) [3]: failing to enhance activity of any fungicide
- enhancement of fungicide activity (combination activity) [4]: failing to enhance activity of any fungicide
- enhancement of fungicide activity (combination activity) (Microdochium nivale): enhancing the activity of azoxystrobin

SMILES: O=C(Nc1cccc([N+](=O)[O-])c1)c1ccccc1C(=O)N1CCCC1 [Compound I-33, N-(3-nitrophenyl)-2-(pyrrolidine-1-carbonyl)benzamide]
- % Inhibition of Apyrase (apyrase): C (C indicates inhibition of from 10% to 20%)

SMILES: O=C(c1ccc(C(=O)N2CCc3ccccc32)cc1)N1CCc2ccccc21 [Compound I-66, 1,4-phenylenebis(indolin-1-ylmethanone)]
- % Inhibition of Apyrase (apyrase): A (A indicates inhibition above 30%)
- additional Brown Rust disease control in combination with Amistar over Amistar alone ([2]; Amistar 0.04 L/ha): greater than 20%

SMILES: CCn1cc2ccc(NC(=O)c3cccc(C(=O)NC)c3)cc2n1 [Compound I-22, N^1-(2-ethy1-2H-indazol-6-yl)-N^3-methylisophthalamide]
- % Inhibition of Apyrase (apyrase): C (C indicates inhibition of from 10% to 20%)

Second part, led by results:

- % Inhibition of Apyrase (apyrase): A (A indicates inhibition above 30%)
SMILES: O=C(Nc1ccccc1Cl)c1ccccc1C(=O)Nc1ccccc1Cl [Compound I-14, N^1,N^2-bis(2-chloropheny)phthalamide]
- Pre-Emergence Amaranthus Kill Percentage [1, 5]: 21.3%
- Pre-Emergence Amaranthus Kill Percentage [1, 6]: 93.9%
- Pre-Emergence Amaranthus Kill Percentage [1, 7]: 98.0%
- Pre-Emergence Amaranthus Kill Percentage [1, 8]: 32.7%
- Pre-Emergence Amaranthus Kill Percentage [1, 9]: 94.0%
- Pre-Emergence Amaranthus Kill Percentage [1, 10]: 100.0%
- enhancement of metribuzin herbicidal activity [1]: significant enhancement

- % Inhibition of Apyrase (apyrase): A (A indicates inhibition above 30%)
SMILES: COCc1cc(F)ccc1NC(=O)c1cccc(C(=O)Nc2ccc(F)cc2COC)c1 [Compound I-63, N^1,N^3-bis(4-fluoro-2-(methoxymethyl)phenyl)isophthalamide]
- Pre-Emergence Amaranthus Kill Percentage [1, 5]: 2.0%
- Pre-Emergence Amaranthus Kill Percentage [1, 6]: 34.0%
- Pre-Emergence Amaranthus Kill Percentage [1, 7]: 96.3%
- Pre-Emergence Amaranthus Kill Percentage [1, 8]: 4.1%
- Pre-Emergence Amaranthus Kill Percentage [1, 9]: 34.0%
- Pre-Emergence Amaranthus Kill Percentage [1, 10]: 98.2%
- enhancement of metribuzin herbicidal activity [1]: significant enhancement

- % Inhibition of Apyrase (apyrase): D (D indicates inhibition of <10%)
SMILES: O=C(Nc1ccc(N2CCCC2=O)cc1)c1ccc(C(=O)Nc2ccc(N3CCCC3=O)cc2)cc1 [Compound I-46, N^1,N^4-bis(4-(2-oxopyrrolidin-1-yl)phenyl)terephthalamide]

- % Inhibition of Apyrase (apyrase): D (D indicates inhibition of <10%)
SMILES: O=C(Nc1ccc2scnc2c1)c1ccc(C(=O)NC2CC2)cc1 [Compound I-41, N^1-(benzo[d]thiazol-5-yl)-N^4-cyclopropylterephthalamide]

- % Inhibition of Apyrase (apyrase): D (D indicates inhibition of <10%)
SMILES: O=C(Nc1ccccc1-c1ncc[nH]1)c1ccc(C(=O)NC2CC2)cc1 [Compound I-47, N^1-(2-(1H-imidazol-2-yl)phenyl)-N^4-cyclopropylterephthalamide]

- % Inhibition of Apyrase (apyrase): D (D indicates inhibition of <10%)
SMILES: C#Cc1cccc(NC(=O)c2ccccc2C(=O)N2CCN(C)CC2)c1 [Compound I-58, N-(3-ethynylphenyl)-2-(4-methylpiperazine-1-carbonyl)benzamide]

- % Inhibition of Apyrase (apyrase): D (D indicates inhibition of <10%)
SMILES: O=C(Nc1ccccc1)c1ccc(C(=O)N[C@@H]2C[C@H]2c2ccccc2)cc1 [Compound I-42, N^1-phenyl-N^4-((1R,2S)-2-phenylcyclopropyl)terephthalamide]

- % Inhibition of Apyrase (apyrase): A (A indicates inhibition above 30%)
SMILES: O=C(Nc1ccc2c(c1)OCO2)c1ccc(C(=O)Nc2ccc3c(c2)OCO3)cc1 [Compound I-5, N^1,N^4-bis(benzo[d][1,3]dioxol-5-yl)terephthalamide]

- % Inhibition of Apyrase (apyrase): D (D indicates inhibition of <10%)
SMILES: CCCNC(=O)c1cccc(C(=O)Nc2cccc3cn[nH]c23)c1 [Compound I-57, N^1-(1H-indazol-7-yl)-N^3-propylisophthalamide]
